{
  "source": "paper PMC6377692",
  "about": "(EJNMMI Research, 2019)",
  "test_system": "cynomolgus monkey GCGR",
  "assay": "functional cAMP assay in transfected HEK293 cells",
  "type": "cell-based",
  "protocol": "The same assay was performed for GLP-1R to assess cross-binding. Details of the assay procedure are described in Additional file 1 and have also been described elsewhere.\ncAMP content of cells was determined using a kit from Cisbio Corp. (cat. no. 62AM4PEJ) based on HTRF (Homogenous Time Resolved Fluorescence). For preparation, cells were split into T175 culture flasks and grown overnight to near confluency in medium (DMEM / 10% FBS). Medium was then removed and cells washed with PBS lacking calcium and magnesium, followed by proteinase treatment with accutase (Sigma-Aldrich cat. no. A6964). Detached cells were washed and resuspended in assay buffer (1 x HBSS; 20 mM HEPES, 0.1% BSA, 2 mM IBMX) and cellular density determined. They were then diluted to 400000 cells/ml and 25 µl-aliquots dispensed into the wells of 96-well plates. For measurement, 25 µl of test compound in assay buffer was added to the wells, followed by incubation for 30 minutes at room temperature.",
  "note": "Bridge positions count the residues as written; N and C are the ends. Square brackets hold non-standard residues; d marks the D form. Peptide text beside a SMILES is read from it. * marks the point of attachment. DO3A(CH2CH2SO2CH2CH2) = O=C(O)CN1CCN(CCS(=O)(=O)CC*)CCN(CC(=O)O)CCN(CC(=O)O)CC1; Ala(4-thiazolyl) = N[C@@H](Cc1cscn1)C(=O)O",
  "data": [
    {"smiles": "CC[C@H](C)[C@H](NC(=O)[C@H](Cc1ccccc1)NC(=O)[C@H](CCC(=O)O)NC(=O)[C@@H]1CCCCNC(=O)CC[C@H](NC(=O)[C@H](CC(=O)O)NC(=O)[C@H](CC(C)C)NC(=O)[C@H](CCC(N)=O)NC(=O)[C@H](CCCCN)NC(=O)[C@H](CO)NC(=O)[C@H](Cc2ccc(O)cc2)NC(=O)[C@H](CC(=O)O)NC(=O)[C@H](CO)NC(=O)[C@@H](NC(=O)[C@H](Cc2ccccc2)NC(=O)[C@@H](NC(=O)CNC(=O)[C@H](CCC(N)=O)NC(=O)[C@@H](CO)NC(=O)[C@@H](N)Cc2cscn2)[C@@H](C)O)[C@@H](C)O)C(=O)N[C@@H](CCC(N)=O)C(=O)N[C@@H](CCCNC(=N)N)C(=O)N[C@@H](C)C(=O)N1)C(=O)N[C@@H](CCC(=O)O)C(=O)N[C@@H](Cc1c[nH]c2ccccc12)C(=O)N[C@@H](CC(C)C)C(=O)N[C@@H](CC(C)C)C(=O)N[C@@H](C)C(=O)N[C@H](C(=O)NCC(=O)N1CCC[C@H]1C(=O)N[C@@H](CCC(=O)O)C(=O)N[C@@H](CO)C(=O)NCC(=O)N[C@@H](C)C(=O)N1CCC[C@H]1C(=O)N1CCC[C@H]1C(=O)N1CCC[C@H]1C(=O)N[C@@H](CO)C(=O)N[C@@H](CSCCS(=O)(=O)CCN1CCN(CC(=O)O)CCN(CC(=O)O)CCN(CC(=O)O)CC1)C(N)=O)[C@@H](C)O", "note": "[DO3A-S01-GCG] (H-[Ala(4-thiazolyl)][dS]QGTFTSDYSKQLDEQRAKEFIEWLLATGPESGAPPPSC(DO3A(CH2CH2SO2CH2CH2))-NH2; lactam 16-20)", "values": [
      {"measurement": "EC50", "value": 1.2, "unit": "pM"}
    ]}
  ]
}
